One series has as its system INS-1 cells. The experiment in a line: Ceramide and dihydroceramide levels in PA-stressed INS-1 cells by mass spectrometry. The class given is cell-based, rat. The settings on record: 24 h, PA 0.25 mM; for Ceramides 14:0 / Ceramides 16:0 / Ceramides 18:0 / Ceramides 18:1 / Ceramides 20:0 / Ceramides 22:0 / Ceramides 24:0 / Ceramides 24:1 / Ceramides 26:0 / Ceramides 26:1 / Dihydroceramides 16:0 / Dihydroceramides 18:0 / Dihydroceramides 20:0 / Dihydroceramides 22:0 / Dihydroceramides 24:0 / Dihydroceramides 24:1: INS1 cells, three replicates. The protocol:
INS-1 cells were seeded at 2 × 10^6/well in a 6-well plate. Cells were treated as follows for 24 h: (i) Control: No FBS or PA (0.25 mM); (ii) Positive Control: 10% FBS + PA (0.25 mM); (iii) Adiponectin (10 nM) + PA (0.25 mM); (iv) AdipoRonPEG6HTL (10 nM) + PA (0.25 mM); (v) AdipoRonPEG6HTL (1 μM) + PA (0.25 mM); (vi) AdipoRonPEG5 (1 μM) + PA (0.25 mM); (vii) AdipoRonPEG5 (20 μM) + PA (0.25 mM). Thereafter, treatment was aspirated, and the cells were washed with cold PBS x 2, scraped off with 1–2 ml PBS, and spun down at 2,500 rpm for 5 min. The supernatant was aspirated, and the pallet was stored at […] for sphingolipid analysis.
Flash-frozen tissue samples (~40 mg) in a borosilicate glass tube were quenched with 2.0 ml of organic extraction solvent (isopropanol: ethyl acetate, 15:85; v:v) and homogenized with a mechanical tissue disruptor. Immediately afterward, 20 μl of organic internal standard solution was added (Ceramide/Sphingoid Internal Standard Mixture II diluted 1:10 in ethanol). The mixture was vortexed for 20 s and sonicated in ultrasonic bath for 40 min at 40°C. The organic extract was allowed to reach room temperature, and 1.5 ml of HPLC water was added and a two-phase liquid-liquid extraction was performed. The upper phase was transferred to a new clean tube, and the lower aqueous phase containing the protein pellet was re-extracted with additional 2.0 ml of organic extraction solvent. The organic phases were combined and dried under nitrogen stream at 40°C. Dried extracts were stored at –80°C until analysis. For analysis of ceramides and sphingoid base species, the dried residues were reconstituted in 200 μl of methanol. Sphingomyelins required a sample dilution of 1:50 in methanol prior to analysis. Serum sphingolipids were extracted using a similar methodology requiring 25 μl of serum.
In total, 5 μl of reconstituted samples was injected into an LC/MS/MS system for the analysis of ceramides and sphingoid bases, and 1 μl injection was required for the analysis of sphingomyelins. The system consisted of a Shimadzu LCMS-8050 triple-quadrupole mass spectrometer with the dual ion source operating in electrospray positive ionization mode. The mass spectrometer is coupled to a Shimadzu Nexera X2 UHPLC system equipped with three solvent delivery modules LC-30AD, three degassing units DGU-20A5R, an autosampler SIL-30ACMP, and a column oven CTO-20AC operating at 40°C (Shimadzu Scientific Instruments, Columbia, MD). Six sphingoid bases (d18:1 sphingosine, d18:1 sphingosine-1-phosphate, d18:1 deoxysphingosine, d18:0 sphinganine, d18:0 sphinganine-1-phosphate, d18:0 deoxysphinganine) and […] ceramide species and their metabolites (C16:0, C16:0 dihydroceramide, C16:0 glucosylceramide, C16:0 lactosylceramide, C16:0 sphingomyelin, C18:0, C18:0 dihydroceramide, C18:0 glucosylceramide, C18:0 sphingomyelin, C18:1, C20:0, C22:0, C22:0 glucosylceramide, C24:0, C24:0 dihydroceramide, C24:0 lactosylceramide, C24:0 sphingomyelin, C24:1, C24:1 dihydroceramide, C24:1 glucosylceramide, C24:1 sphingomyelin). Quantitative analysis of sphingolipids was achieved using selective reaction monitoring scan mode. Lipid separation was achieved by reverse phase LC on a 2.1 (i.d.) × 150 mm Ascentis Express C8, 2.7 micron (Supelco, Bellefonte, PA) column under gradient elution, using three different mobile phases: eluent A consisting of methanol/water/formic acid, 600/400/0.8, v/v/v with 5 mM ammonium formate, eluent B consisting of methanol/formic acid, 1,000/0.8, v/v with 5 mM ammonium formate, and eluent C consisting of CH3OH/CH2Cl2 350/650. The concentration of each metabolite was determined according to calibration curves using the peak-area ratio of analyte versus corresponding internal standard. Calibration curves were generated using serial dilutions of each target analyte.

Details of series [1]: method as in https://www.caymanchem.com/pdfs/15941.pdf. The settings on record: ref https://www.caymanchem.com/pdfs/15941.pdf; cited from earlier work.

≈ marks a conversion by molar mass, not a printed value. Where “and” joins values, the source holds several entries; their conditions need not be identical. Equal values may be shown once.

Take `O=C(COc1ccc(C(=O)c2ccccc2)cc1)NC1CCN(Cc2ccc(OCCOCCOCCOCCOCCO)cc2)CC1` [AdipoRonPEG5]: in the series on INS-1 cells (1 μM), the “C22:0 and C24:0 ceramides” value was “significantly reduced”; the “Ceramides 14:0” value is 11.37 pg/mg and 8.34 pg/mg and 8.44 pg/mg; the “Ceramides 16:0” value is 132.31 pg/mg and 60.25 pg/mg and 97.74 pg/mg; the “Ceramides 18:0” value was 285.84 pg/mg and 108.83 pg/mg and 172.70 pg/mg. In the series with INS-1 cells (1 μM), the “Ceramides 18:1” value is 2.60 pg/mg and 1.60 pg/mg and 2.34 pg/mg; the “Ceramides 20:0” value was 81.47 pg/mg and 94.91 pg/mg and 71.51 pg/mg; the “Ceramides 22:0” value is 502.13 pg/mg and 501.01 pg/mg and 352.24 pg/mg; the “Ceramides 24:0” value is 985.21 pg/mg and 942.22 pg/mg and 715.38 pg/mg. In the series on INS-1 cells (1 μM), the “Ceramides 24:1” value is 415.25 pg/mg and 405.60 pg/mg and 306.31 pg/mg; the “Ceramides 26:0” value was 13.63 pg/mg and 11.39 pg/mg and 10.09 pg/mg; the “Ceramides 26:1” value was 4.83 pg/mg and 4.31 pg/mg and 3.39 pg/mg; the “Dihydroceramides 16:0” value was 20.35 pg/mg and 15.35 pg/mg and 22.55 pg/mg. Further, in the series on INS-1 cells (1 μM), the “Dihydroceramides 18:0” value was 114.43 pg/mg and 74.94 pg/mg and 73.63 pg/mg; the “Dihydroceramides 20:0” value was 37.94 pg/mg and 40.41 pg/mg and 33.11 pg/mg; the “Dihydroceramides 22:0” value is 124.23 pg/mg and 124.34 pg/mg and 96.61 pg/mg; the “Dihydroceramides 24:0” value was 149.67 pg/mg and 168.38 pg/mg and 120.04 pg/mg. Besides, the “Dihydroceramides 24:1” value in the series with INS-1 cells (1 μM) is 47.95 pg/mg and 51.21 pg/mg and 34.41 pg/mg. Further, the “overall dihydroceramide and ceramides levels” value in the series on INS-1 cells was “markedly lowered”. Further, in the series with INS-1 cells (20 μM), the “Ceramides 14:0” value was 13.47 pg/mg and 7.61 pg/mg and 10.59 pg/mg; the “Ceramides 16:0” value is 264.29 pg/mg and 93.09 pg/mg and 72.49 pg/mg; the “Ceramides 18:0” value is 442.08 pg/mg and 170.74 pg/mg and 152.01 pg/mg; the “Ceramides 18:1” value was 3.76 pg/mg and 2.21 pg/mg and 1.71 pg/mg. Besides, in the series on INS-1 cells (20 μM), the “Ceramides 20:0” value is 86.19 pg/mg and 75.99 pg/mg and 78.87 pg/mg; the “Ceramides 22:0” value is 345.37 pg/mg and 441.95 pg/mg and 372.15 pg/mg; the “Ceramides 24:0” value was 827.24 pg/mg and 951.19 pg/mg and 835.47 pg/mg; the “Ceramides 24:1” value is 377.12 pg/mg and 400.62 pg/mg and 388.65 pg/mg. Moreover, in the series with INS-1 cells (20 μM), the “Ceramides 26:0” value is 9.40 pg/mg and 10.66 pg/mg and 9.87 pg/mg; the “Ceramides 26:1” value was 3.59 pg/mg and 4.43 pg/mg and 3.78 pg/mg; the “Dihydroceramides 16:0” value was 24.81 pg/mg and 12.98 pg/mg and 10.56 pg/mg; the “Dihydroceramides 18:0” value was 94.22 pg/mg and 32.83 pg/mg and 48.23 pg/mg. Besides, in the series with INS-1 cells (20 μM), the “Dihydroceramides 20:0” value is 22.59 pg/mg and 15.72 pg/mg and 18.47 pg/mg; the “Dihydroceramides 22:0” value was 48.91 pg/mg and 46.89 pg/mg and 48.41 pg/mg; the “Dihydroceramides 24:0” value was 58.93 pg/mg and 62.29 pg/mg and 62.49 pg/mg; the “Dihydroceramides 24:1” value is 21.44 pg/mg and 23.79 pg/mg and 23.03 pg/mg.

With `O=C(COc1ccc(C(=O)c2ccccc2)cc1)NC1CCN(Cc2ccccc2)CC1` [AdipoRon], the “solubility in neutral phosphate buffer containing >30% DMSO” value in series [1] is 250 µg/mL (≈ 583 µM).

The values above are taken from paper PMC8327158, “PEGylated AdipoRon derivatives improve glucose and lipid metabolism under insulinopenic and high-fat diet conditions” (Journal of Lipid Research, 2021).
